These results are taken from PubChem BioAssay (NCI).

Structures are written as SMILES.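 All cell lines were grown in 96-well plates and treated with compound for 48 hours. GI50 is the concentration that inhibits growth by half. Definition used: TGI = concentration required for complete inhibition of growth.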

The test system of one assay is A498 renal. In words: growth of human tumour cells (NCI), 48 h.
In the case of `O=C1CSC(N2CCN(c3cccc(Cl)c3)CC2)=N1`, the GI50 is > 100 µM and the TGI was > 100 µM.
For `Cc1cc(C)nc(NS(=O)(=O)c2ccc(NC(=O)c3cccc4c(=O)c5ccccc5[nH]c34)cc2)n1`, the TGI worked out at 34.9 µM.
In the case of `CCN1CCN(c2nc(NCCNc3ccnc4cc(Cl)ccc34)c3ccccc3n2)CC1`, the GI50 was 1.68 µM and the TGI worked out at 3.35 µM.
On the same counts, the results for `COc1ccccc1NC(=O)c1ccc(/C=C/C(=O)c2nccn2C)cc1` are 0.555 µM and 1.49 µM.
Consider `CCCCCCCCCCCCCCC1OC(=O)c2ccccc21` (stereo not given), for which the TGI is > 100 µM.
For `Cn1cc(C2=C(c3ccc(OC[C@@H](O)CO)cc3)C(=O)NC2=O)c2ccccc21`, the GI50 was 3.54 µM and the TGI turned out to be 15.3 µM.

For a further assay, the system named is HCT-116 colon. In words: growth of human tumour cells (NCI), 48 h.
In the case of `O=C1CSC(N2CCN(c3cccc(Cl)c3)CC2)=N1`, the GI50 is > 100 µM and the TGI is > 100 µM.
With `Cc1cc(C)nc(NS(=O)(=O)c2ccc(NC(=O)c3cccc4c(=O)c5ccccc5[nH]c34)cc2)n1`, the TGI amounted to 30.7 µM.
Take `CCN1CCN(c2nc(NCCNc3ccnc4cc(Cl)ccc34)c3ccccc3n2)CC1`: the GI50 is 1.1 µM and the TGI is 6.13 µM.
With `COc1ccccc1NC(=O)c1ccc(/C=C/C(=O)c2nccn2C)cc1`, the GI50 is 0.408 µM and the TGI is 0.89 µM.
Regarding `CCCCCCCCCCCCCCC1OC(=O)c2ccccc21` (stereo not given), the TGI was > 100 µM.
`Cn1cc(C2=C(c3ccc(OC[C@@H](O)CO)cc3)C(=O)NC2=O)c2ccccc21`: the GI50 is > 25 µM and the TGI is > 25 µM.

The test system of another assay is KM12 colon. Briefly: growth of human tumour cells (NCI), 48 h.
Take `O=C1CSC(N2CCN(c3cccc(Cl)c3)CC2)=N1`: the GI50 is > 100 µM and the TGI is > 100 µM.
`Cc1cc(C)nc(NS(=O)(=O)c2ccc(NC(=O)c3cccc4c(=O)c5ccccc5[nH]c34)cc2)n1` registered a TGI of 30.7 µM.
`CCN1CCN(c2nc(NCCNc3ccnc4cc(Cl)ccc34)c3ccccc3n2)CC1`: the GI50 is 1.63 µM and the TGI was 5.18 µM.
On the same counts, the results for `COc1ccccc1NC(=O)c1ccc(/C=C/C(=O)c2nccn2C)cc1` are 0.44 µM and 0.872 µM.
`CCCCCCCCCCCCCCC1OC(=O)c2ccccc21` (stereo not given): the TGI was > 100 µM.
As for `Cn1cc(C2=C(c3ccc(OC[C@@H](O)CO)cc3)C(=O)NC2=O)c2ccccc21`, the GI50 is > 25 µM and the TGI was > 25 µM.

The next assay deals with MALME-3M melanoma. Briefly: growth of human tumour cells (NCI), 48 h.
Regarding `O=C1CSC(N2CCN(c3cccc(Cl)c3)CC2)=N1`, the GI50 is > 100 µM and the TGI was > 100 µM.
`Cc1cc(C)nc(NS(=O)(=O)c2ccc(NC(=O)c3cccc4c(=O)c5ccccc5[nH]c34)cc2)n1` returned a TGI of 33.8 µM.
As for `CCN1CCN(c2nc(NCCNc3ccnc4cc(Cl)ccc34)c3ccccc3n2)CC1`, the GI50 was 1.95 µM and the TGI turned out to be 3.58 µM.
With `COc1ccccc1NC(=O)c1ccc(/C=C/C(=O)c2nccn2C)cc1`, the GI50 is 0.616 µM and the TGI came out at 1.73 µM.
`CCCCCCCCCCCCCCC1OC(=O)c2ccccc21` (stereo not given): the TGI is > 100 µM.
In the case of `Cn1cc(C2=C(c3ccc(OC[C@@H](O)CO)cc3)C(=O)NC2=O)c2ccccc21`, the GI50 is > 25 µM and the TGI is > 25 µM.

For a further assay, the system named is NCI-H226 lung. Briefly: growth of human tumour cells (NCI), 48 h.
Take `O=C1CSC(N2CCN(c3cccc(Cl)c3)CC2)=N1`: the GI50 was > 100 µM and the TGI was > 100 µM.
Regarding `Cc1cc(C)nc(NS(=O)(=O)c2ccc(NC(=O)c3cccc4c(=O)c5ccccc5[nH]c34)cc2)n1`, the TGI is 36 µM.
Regarding `CCN1CCN(c2nc(NCCNc3ccnc4cc(Cl)ccc34)c3ccccc3n2)CC1`, the GI50 was 1.82 µM and the TGI came out at 4.05 µM.
For `COc1ccccc1NC(=O)c1ccc(/C=C/C(=O)c2nccn2C)cc1`, the GI50 was 0.588 µM and the TGI was found to be 1.69 µM.
For the compound `CCCCCCCCCCCCCCC1OC(=O)c2ccccc21` (stereo not given), the TGI is > 100 µM.
Turning to `Cn1cc(C2=C(c3ccc(OC[C@@H](O)CO)cc3)C(=O)NC2=O)c2ccccc21`, the GI50 is > 25 µM and the TGI is > 25 µM.

The next assay deals with OVCAR-4 ovarian. Briefly: growth of human tumour cells (NCI), 48 h.
In the case of `O=C1CSC(N2CCN(c3cccc(Cl)c3)CC2)=N1`, the GI50 is > 100 µM and the TGI is > 100 µM.
The compound `Cc1cc(C)nc(NS(=O)(=O)c2ccc(NC(=O)c3cccc4c(=O)c5ccccc5[nH]c34)cc2)n1` returned a TGI of 43.3 µM.
Consider `CCN1CCN(c2nc(NCCNc3ccnc4cc(Cl)ccc34)c3ccccc3n2)CC1`, for which the GI50 is 1.78 µM and the TGI stood at 4.45 µM.
The like results for `COc1ccccc1NC(=O)c1ccc(/C=C/C(=O)c2nccn2C)cc1` were, in that order, 0.74 µM and 5.67 µM.
With `CCCCCCCCCCCCCCC1OC(=O)c2ccccc21` (stereo not given), the TGI was > 100 µM.
In the case of `Cn1cc(C2=C(c3ccc(OC[C@@H](O)CO)cc3)C(=O)NC2=O)c2ccccc21`, the GI50 is > 25 µM and the TGI is > 25 µM.

The test system of a further assay is SF-268 CNS. In words: growth of human tumour cells (NCI), 48 h.
For the compound `O=C1CSC(N2CCN(c3cccc(Cl)c3)CC2)=N1`, the GI50 is > 100 µM and the TGI is > 100 µM.
`Cc1cc(C)nc(NS(=O)(=O)c2ccc(NC(=O)c3cccc4c(=O)c5ccccc5[nH]c34)cc2)n1` came in with a TGI of 48.2 µM.
Turning to `CCN1CCN(c2nc(NCCNc3ccnc4cc(Cl)ccc34)c3ccccc3n2)CC1`, the GI50 was 2.51 µM and the TGI turned out to be 13.3 µM.
On the same counts, the results for `COc1ccccc1NC(=O)c1ccc(/C=C/C(=O)c2nccn2C)cc1` are 0.631 µM and 1.97 µM.
Take `CCCCCCCCCCCCCCC1OC(=O)c2ccccc21` (stereo not given): the TGI was > 100 µM.
Consider `Cn1cc(C2=C(c3ccc(OC[C@@H](O)CO)cc3)C(=O)NC2=O)c2ccccc21`, for which the GI50 is > 25 µM and the TGI is > 25 µM.

The next assay relates to SF-539 CNS. In words: growth of human tumour cells (NCI), 48 h.
`O=C1CSC(N2CCN(c3cccc(Cl)c3)CC2)=N1`: the GI50 is > 100 µM and the TGI is > 100 µM.
The compound `Cc1cc(C)nc(NS(=O)(=O)c2ccc(NC(=O)c3cccc4c(=O)c5ccccc5[nH]c34)cc2)n1` came in with a TGI of 35.4 µM.
As for `CCN1CCN(c2nc(NCCNc3ccnc4cc(Cl)ccc34)c3ccccc3n2)CC1`, the GI50 was 1.83 µM and the TGI is 3.36 µM.
As for `COc1ccccc1NC(=O)c1ccc(/C=C/C(=O)c2nccn2C)cc1`, the GI50 is 0.495 µM and the TGI is 1.07 µM.
On to `CCCCCCCCCCCCCCC1OC(=O)c2ccccc21` (stereo not given), for which the TGI is > 100 µM.
Consider `Cn1cc(C2=C(c3ccc(OC[C@@H](O)CO)cc3)C(=O)NC2=O)c2ccccc21`, for which the GI50 is > 25 µM and the TGI is > 25 µM.

The next assay concerns UACC-257 melanoma. Briefly: growth of human tumour cells (NCI), 48 h.
As for `O=C1CSC(N2CCN(c3cccc(Cl)c3)CC2)=N1`, the GI50 is > 100 µM and the TGI is > 100 µM.
In turn, `Cc1cc(C)nc(NS(=O)(=O)c2ccc(NC(=O)c3cccc4c(=O)c5ccccc5[nH]c34)cc2)n1` showed a TGI of 33.9 µM.
In the case of `CCN1CCN(c2nc(NCCNc3ccnc4cc(Cl)ccc34)c3ccccc3n2)CC1`, the GI50 is 2.62 µM and the TGI turned out to be 4.8 µM.
Regarding `COc1ccccc1NC(=O)c1ccc(/C=C/C(=O)c2nccn2C)cc1`, the GI50 is 0.972 µM and the TGI is 10.1 µM.
As to `CCCCCCCCCCCCCCC1OC(=O)c2ccccc21` (stereo not given), the TGI was > 100 µM.
Regarding `Cn1cc(C2=C(c3ccc(OC[C@@H](O)CO)cc3)C(=O)NC2=O)c2ccccc21`, the GI50 was > 25 µM and the TGI was > 25 µM.

The test system of a further assay is UACC-62 melanoma. In words: growth of human tumour cells (NCI), 48 h.
With `O=C1CSC(N2CCN(c3cccc(Cl)c3)CC2)=N1`, the GI50 is > 100 µM and the TGI is > 100 µM.
For `Cc1cc(C)nc(NS(=O)(=O)c2ccc(NC(=O)c3cccc4c(=O)c5ccccc5[nH]c34)cc2)n1`, the TGI was 44.5 µM.
On to `CCN1CCN(c2nc(NCCNc3ccnc4cc(Cl)ccc34)c3ccccc3n2)CC1`, for which the GI50 was 1.41 µM and the TGI came out at 2.94 µM.
The like results for `COc1ccccc1NC(=O)c1ccc(/C=C/C(=O)c2nccn2C)cc1` were, in that order, 0.472 µM and 0.986 µM.
As to `CCCCCCCCCCCCCCC1OC(=O)c2ccccc21` (stereo not given), the TGI is > 100 µM.
For `Cn1cc(C2=C(c3ccc(OC[C@@H](O)CO)cc3)C(=O)NC2=O)c2ccccc21`, the GI50 is > 25 µM and the TGI was > 25 µM.
